Columns and labels:
[1] = log P by HPLC (OECD Guideline 117), method [a] acidic range; format: physicochemical; settings: for logP[a]: HPLC, method [a] acidic range; for chromatographic logP: reversed-phase C18 HPLC column, acidic range
Protocol: (§1) The log P values were determined analogously to OECD Guideline 117 (EC Directive 92/69/EEC) by HPLC (high-performance liquid chromatography) using reversed-phase columns (C 18), by the following methods:
[a] The LC-MS determination in the acidic range is effected at pH 2.7 with 0.1% aqueous formic acid and acetonitrile (contains 0.1% formic acid) as eluents; linear gradient from 10% acetonitrile to 95% acetonitrile.

[2] = log P by HPLC (OECD Guideline 117), method [b] neutral range; format: physicochemical; settings: HPLC; for logP[b]: method [b] neutral range; for chromatographic logP: reversed-phase C18 HPLC column, neutral range, pH 7.8
Protocol: as §1
[b] The LC-MS determination in the neutral range is effected at pH 7.8 with 0.001 molar aqueous ammonium hydrogencarbonate solution and acetonitrile as eluents; linear gradient from 10% acetonitrile to 95% acetonitrile.

Tetranychus urticae = Tetranychus urticae spray test, OP-resistant (TETRUR); format: in vivo; settings: application rate of 500 g/ha, after 6 days; for pest or weed control at 500 g/ha: Tetranychus urticae, 144 h, read-out: efficacy
How it was run: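 Bean leaf discs infested with all stages of an OP-resistant Tetranychus urticae strain sprayed with compound in acetone/DMF with alkylaryl polyglycol ether emulsifier, diluted in water. Efficacy in % scored after 6 days; 100% means all mites killed.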

Meloidogyne incognita = Meloidogyne incognita test (MELGIN); format: in vivo; settings: application rate of 20 ppm; after 14 days, by formation of galls
Protocol: Meloidogyne Incognita Test (MELGIN)
• Solvent: 125.0 parts by weight of acetone
To produce an appropriate active ingredient formulation, 1 part by weight of active ingredient is mixed with the specified amounts of solvent and the concentrate is diluted to the desired concentration with water.
Vessels are filled with sand, active ingredient solution, an egg/larvae suspension of the southern root-knot nematode (Meloidogyne incognita) and lettuce seeds. The lettuce seeds germinate and the plants develop. The galls develop on the roots
After 14 days, the nematicidal efficacy in % is determined by the formation of galls. 100% means that no galls have been found; 0% means that the number of galls on the treated plants corresponds to the untreated control.

Phaedon cochleariae = Phaedon cochleariae spray test (PHAECO); format: in vivo; settings: application rate of 500 g/ha, after 7 days; for pest or weed control at 500 g/ha: Phaedon cochleariae, 168 h, read-out: efficacy
Protocol: Phaedon cochleariae—Spray Test (PHAECO)
• Solvent: 78.0 parts by weight of acetone • 1.5 parts by weight of dimethylformamide • Emulsifier: 0.5 part by weight of alkylaryl polyglycol ether
To produce an appropriate active ingredient formulation, 1 part by weight of active ingredient is mixed with the specified amounts of solvent and emulsifier, and the concentrate is diluted to the desired concentration with emulsifier-containing water.
Discs of Chinese cabbage leaves (Brassica pekinensis) are sprayed with an active ingredient formulation of the desired concentration and, after drying, populated with larvae of the mustard beetle (Phaedon cochleariae).
After 7 days, the efficacy in % is determined 100% means that all beetle larvae have been killed; 0% means that none of the beetle larvae have been killed.

Boophilus microplus = Boophilus microplus injection test (BOOPMI Inj); format: in vivo; settings: application rate of 20 μg/animal, assessed after 7 days by laying of fertile eggs
Protocol: Use Examples Boophilus microplus Injection Test (BOOPMI Inj) • Solvent: dimethyl sulphoxide
To prepare an appropriate active ingredient formulation, 10 mg of active ingredient are mixed with 0.5 ml of solvent and the concentrate is diluted with solvent to the desired concentration.
1 μl of the active ingredient solution is injected into the abdomen of 5 engorged adult female cattle ticks (Boophilus microplus). The animals are transferred into dishes and kept in a climate-controlled room.
The efficacy is assessed after 7 days by laying of fertile eggs. Eggs which are not visibly fertile are stored in a climate-controlled cabinet until the larvae hatch after about 42 days.
An efficacy of 100% means that none of the ticks has laid any fertile eggs; 0% means that all the eggs are fertile.

[3] = pH 2.7, HPLC method [a], read-out: logP[a]
[4] = pH 2.7, HPLC, pH 2.7, read-out: log P[a]

SMILES | logP[a] [1] | logP[b] [2] | efficacy (Tetranychus urticae) | nematicidal efficacy (Meloidogyne incognita) | efficacy (Phaedon cochleariae) | also measured
Cc1cc(F)c(-n2nnn(CC(F)(F)C(F)(F)F)c2=O)cc1[S+]([O-])CC(F)(F)F (racemic) [Example 446] | 3.05 | 3.01 | 90% | 100% | – | –
COc1nn(-c2cc(SCC(F)(F)F)c(Cl)cc2Cl)c(=O)n1C1CC1 [Example 107] | 3.46 | 3.42 | – | 90% | – | –
COc1nn(-c2ccc(Cl)c(SCC(F)(F)F)c2)c(=O)n1C1CC1 [Example 108] | 3.91 | 3.84 | – | 90% | – | –
COc1nn(-c2ccc(Br)c([S+]([O-])CC(F)(F)F)c2)c(=O)n1C1CC1 (centres unmarked) [Example 110] | 3.00 | 2.95 | – | 100% | – | –
COc1nn(-c2ccc(Br)c(SCC(F)(F)F)c2)c(=O)n1C1CC1 [Example 111] | 4.01 | 3.93 | – | 100% | – | –
COc1nn(-c2ccc(C#N)c([S+]([O-])CC(F)(F)F)c2)c(=O)n1C1CC1 (centres unmarked) [Example 118] | 2.47 | 2.43 | – | 100% | – | –
Cc1ccc(-n2nc(OCC3CC3)n(C3CC3)c2=O)cc1SCC(F)(F)F [Example 135] | 4.60 | 4.56 | – | 90% | – | –
C=C(C)CCOc1nn(-c2ccc(C)c(SCC(F)(F)F)c2)c(=O)n1C1CC1 [Example 138] | 5.01 | 4.96 | – | 90% | – | –
C=C(C)CCOc1nn(-c2ccc(C)c([S+]([O-])CC(F)(F)F)c2)c(=O)n1C1CC1 (centres unmarked) [Example 139] | 3.67 | 3.60 | – | 90% | – | –
CCC(C)Oc1nn(-c2ccc(C)c(SCC(F)(F)F)c2)c(=O)n1C1CC1 (centres unmarked) [Example 142] | 5.01 | 4.96 | – | 90% | – | –
Cc1ccc(-n2nc(OCC3CC3)n(C)c2=O)cc1SCC(F)(F)F [Example 145] | 4.20 | 4.19 | – | 100% | – | –
Cc1cc(F)c(-n2nc(C)n(N)c2=O)cc1[S+]([O-])CC(F)(F)F (centres unmarked) [Example 209] | 1.36 | 1.34 | 100% | – | 83% | –
Cc1cc(F)c(-n2nc(C(F)(F)F)n(N(C)C)c2=O)cc1SCC(F)(F)F [Example 214] | 4.24 | 4.15 | – | 90% | – | –
CNc1nn(-c2cc([S+]([O-])CC(F)(F)F)c(C)cc2F)c(=O)n1N (centres unmarked) [Example 219] | 1.32 | 1.29 | 90% | – | 100% | –
CCN(CC)c1nn(-c2cc([S+]([O-])CC(F)(F)F)c(C)cc2F)c(=O)n1N (centres unmarked) [Example 223] | 2.23 | 2.18 | 90% | – | 100% | –
Cc1cc(F)c(-n2nc(NC(C)C)n(N)c2=O)cc1[S+]([O-])CC(F)(F)F (centres unmarked) [Example 225] | 1.87 | 1.83 | 100% | – | 100% | –
C=CCn1c(SC)nn(-c2cc([S+]([O-])CC(F)(F)F)c(C)cc2F)c1=O (centres unmarked) [Example 272] | 2.54 | 2.48 | 100% | – | 83% | –

SMILES | logP[a] [1] | logP[b] [2] | efficacy (Tetranychus urticae) | nematicidal efficacy (Meloidogyne incognita) | efficacy (Phaedon cochleariae) | also measured
COC1=CC(=O)N(c2ccc(C(F)(F)F)c([S+]([O-])CC(F)(F)F)c2)C1 (centres unmarked) [Example 321] | 2.61 | 2.55 | – | – | 100% | efficacy (Boophilus microplus): 100%
Cc1cc(F)c(N2CC(OCc3ccccc3)=CC2=O)cc1[S+]([O-])CC(F)(F)F (centres unmarked) [Example 323] | 2.87 | 2.81 | – | 90% | – | –
COCCOC1=CC(=O)N(c2cc(SCC(F)(F)F)c(C)cc2F)C1 [Example 328] | 2.86 | 2.82 | 90% | – | 100% | –
Cc1cc(F)c(N2CC(OC3CCCC3)=CC2=O)cc1SCC(F)(F)F [Example 329, 4-(Cyclopentyloxy)-1-{2-fluoro-4-methyl-5-[(2,2,2-trifluoroethyl)sulphanyl]phenyl}-1,5-dihydro-2H-pyrrol-2-one] | – | – | – | – | – | chromatographic logP [1, 3]: 4.2; chromatographic logP [1, 4]: 4.2; pest or weed control at 500 g/ha (Phaedon cochleariae): 100%; chromatographic logP [2]: 4.06; pest or weed control at 500 g/ha (Tetranychus urticae): 90%
CCOC1=CC(=O)N(c2cc(SCC(F)(F)F)c(C)cc2F)C1 [Example 330] | 3.29 | 3.21 | 90% | – | 100% | –
Cc1cc(F)c(N2CC(OC3CCCC3)=CC2=O)cc1[S+]([O-])CC(F)(F)F (centres unmarked) [Example 336, 4-(Cyclopentyloxy)-1-{2-fluoro-4-methyl-5-[(2,2,2-trifluoroethyl)sulphinyl]phenyl}-1,5-dihydro-2H-pyrrol-2-one] | – | – | – | – | – | chromatographic logP [1, 3]: 2.97; chromatographic logP [1, 4]: 2.97; pest or weed control at 500 g/ha (Phaedon cochleariae): 83%; chromatographic logP [2]: 2.91; pest or weed control at 500 g/ha (Tetranychus urticae): 90%
Cc1cc(F)c(-n2ncn(-c3ccc(F)cc3)c2=O)cc1SCC(F)(F)F [Example 349] | 3.48 | 3.40 | 90% | – | 100% | –
Cc1cc(F)c(-n2nc(C)n(-c3ccccc3)c2=O)cc1SCC(F)(F)F [Example 350] | 3.40 | 3.34 | 100% | – | 83% | –
Cc1cc(F)c(-n2ncn(-c3ccccc3)c2=O)cc1SCC(F)(F)F [Example 351] | 3.43 | 3.36 | 100% | – | 100% | –
Cc1cc(F)c(-n2nc(OCC(Cl)(Cl)Cl)n(C)c2=O)cc1SCC(F)(F)F [Example 376] | 4.23 | 4.18 | 100% | – | 100% | –
COc1nn(-c2cc(SCC(F)(F)F)c(C)cc2F)c(=O)n1CC1CC1 [Example 390] | 3.64 | 3.58 | 100% | – | 100% | efficacy (Boophilus microplus): 100%
Cc1cc(F)c(-n2nc(OCC(Cl)(Cl)Cl)n(C)c2=O)cc1[S+]([O-])CC(F)(F)F (centres unmarked) [Example 392] | 3.13 | 3.09 | 90% | – | 100% | efficacy (Boophilus microplus): 100%
CC(C)(C)COc1nn(-c2cc(SCC(F)(F)F)c(Cl)cc2F)c(=O)n1C1CC1 [Example 394] | 4.95 | 4.89 | 100% | – | 83% | –
Cc1cc(F)c(-n2nc(Cl)n(C)c2=O)cc1SCC(F)(F)F [Example 435] | 3.07 | 3.04 | 100% | – | 83% | –
Cc1cc(F)c(-n2nc(Cl)n(C)c2=O)cc1[S+]([O-])CC(F)(F)F (centres unmarked) [Example 437] | 2.00 | 1.98 | 90% | – | 83% | –
Cc1cc(F)c(-n2nnn(C)c2=S)cc1SCC(F)(F)F [Example 447, 1-{2-Fluoro-4-methyl-5-[(2,2,2-trifluoroethyl)sulphanyl]phenyl}-4-methyl-1,4-dihydro-5H-tetrazole-5-thione] | – | – | – | – | – | chromatographic logP [1, 3]: 3.51; chromatographic logP [1, 4]: 3.51; pest or weed control at 500 g/ha (Phaedon cochleariae): 100%; chromatographic logP [2]: 3.49; pest or weed control at 500 g/ha (Tetranychus urticae): 100%
